This is an account of results in US20060148014A1, “Tubulin isotype screening in cancer therapy using hemiasterlin analogs” (priority 2004, published 2006).

Holding throughout (type): cell-based
Test [1] concerns ZR-75-30 human breast cancer cell line. In words: Cell growth inhibition assay (methylene blue), ZR-75-30. The text has this:
(§1) The following human breast cancer cell lines were obtained from the ATCC. Cells were maintained according to ATCC-recommended culture conditions. AU565 (ATCC Catalog No. ATCC Catalog. No. CRL-2351), BT-20 (ATCC Catalog No. HTB-19), MCF7 (ATCC Catalog No. HTB22), MDA-MB-231 (ATCC Catalog No. HTB-26), MDA-MB-435 (ATCC Catalog No. HTB-129), MDA-MB-468 (ATCC Catalog No. HTB-132), HCC38 (ATCC Catalog No. CRL-2314), HCC70 (ATCC Catalog No. CRL-2315), HCC1143 (ATCC Catalog No. CRL-2321), HCC1428 (ATCC Catalog No. CRL-2327), HCC1500 (ATCC Catalog No. CRL-2329), HCC1806 (ATCC Catalog No. CRL-2335), HCC1954 (ATCC Catalog No. CRL-2338), HCC2218 (ATCC Catalog No. CRL-2343), UACC-812 (ATCC Catalog No. CRL-1897), UACC-893 (ATCC Catalog No. CRL-1902), ZR-75-1 (ATCC Catalog No. CRL-1500), ZR-75-30 (ATCC Catalog No. CRL-1504).
(§2) Cultured human breast cancer cells were placed in 96-well plates and grown in the continuous presence of test compounds for 4 or 7 days. To expose the cells to test compounds for 7 days, medium was replaced with fresh medium containing compounds after 4 days of exposure and cells were incubated for 3 additional days. Cell growth was assessed using modifications (Amin et al., Cancer Res., 47:6040-6045, 1987; incorporated herein by reference) of a methylene blue-based microculture assay (Finlay et al., Anal. Biochem., 139:272-277, 1984; incorporated herein by reference).
(§3) To investigate the possible expression of PgP by the cell lines used in this study, the antiproliferative effects of paclitaxel were determined in the presence and absence of verapamil, a known inhibitor of PgP.

The subject of test [2] is HCC38 human breast cancer cell line. Kind of test: Cell growth inhibition assay (methylene blue), HCC38.
Source text: as §1, §2, §3

Test [3] concerns panel of 19 human breast cancer cell lines. Kind of test: Cell growth inhibition assay, panel of 19 human breast cancer cell lines. The following applies: panel of 19 human breast cancer cell lines.
Source text: as §1, §2
Antiproliferative effects of four tubulin-binding anticancer agents were evaluated by a methylene blue-based cell growth inhibin assay in a panel of 19 human breast cancer cell lines. The following agents were used in this study: halichondrin analog E7389, hemiasterlin analog E7974, vinblastine, and paclitaxel. Each IC50 determination was conducted in at least three separate experiments. A presence of multidrug resistance efflux pump (P-glycoprotein or PgP) could markedly affect sensitivity of cell lines to test agents and thus mask correlations between beta-tubulin expression and cell lines' sensitivity to test agents. Cell lines were therefore tested for evidence of PgP expression by monitoring effects of the PgP blocker verapamil (used at a 10 μM concentration) on paclitaxel sensitivity. No evidence for PgP expression was found in any of the cell lines tested (Table 4). […] Inter-drug correlations were seen between sensitivities to the three microtubule polymerization inhibitors E7974, E7389, and vinblastine, but not between the microtubule polymerization stabilizer paclitaxel.

Test [4] deals with MDA-MB-435 human breast cancer cell line. In words: Cell growth inhibition assay (methylene blue), MDA-MB-435.
Source text: as §1, §2, §3

[5] abbreviates: +10 μM verapamil (PgP blocker), read-out: Paclitaxel IC50 (+10 μM verapamil).
The mark [6] stands for this setting: continuous presence of compound 4 or 7 days, at least three experiments, read-out: Average IC50.
The mark [7] stands for this setting: no verapamil, read-out: Paclitaxel IC50 (no verapamil).

The IC50 is the concentration needed to halve the response being measured.

SMILES strings stand for the structures. Like-named read-outs stand apart in the source and are kept apart here.

Regarding `CC(=O)O[C@H]1C(=O)[C@@]2(C)[C@H]([C@H](OC(=O)c3ccccc3)[C@]3(O)C[C@H](OC(=O)[C@H](O)[C@@H](NC(=O)c4ccccc4)c4ccccc4)C(C)=C1C3(C)C)[C@]1(OC(C)=O)CO[C@@H]1C[C@@H]2O` [Paclitaxel, paclitaxel], the IC50 was 4.1 nM in test [1] (setting [5]); 4.06 nM in test [1] (setting [6]); 3.9 nM in test [1] (setting [7]); 6.2 nM in test [2] (HCC-38, +10 μM verapamil (PgP blocker), read-out: Paclitaxel IC50 (+10 μM verapamil)); 5.9 nM in test [2] (HCC-38, no verapamil, read-out: Paclitaxel IC50 (no verapamil)); 2.94 nM in test [2] (setting [6]). Moreover, the IC50 in test [4] (setting [5]) came out at 2.7 nM; in test [4] (setting [6]) it was 2.42 nM; in test [4] (setting [7]), 2.6 nM. Further, in test [3], the “fold-difference between IC50's in the most sensitive and the least sensitive cell line” value came to 5.8 fold.
